Source: PMC10893631, “Receptor-based pharmacophore modeling, molecular docking, synthesis and biological evaluation of novel VEGFR-2, FGFR-1, and BRAF multi-kinase inhibitors” (BMC Chemistry, 2024)

Assays:
Assay in all cases: NCI SRB growth inhibition (single dose 10 µM / five-dose)
Assay type in all cases: cell-based, human
BT-549 = details: Homo sapiens; for inhibition at 10 µM: BT-549 (Breast cancer), read-out: GI%
In short: (§1)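 Percent growth relative to untreated control and time-zero cell mass, determined by SRB. Five drug levels (10-fold or half-log steps) plus control; time-zero plates fixed 24 h after seeding.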

CCRF-CEM = details: Homo sapiens; for inhibition at 10 µM: CCRF-CEM (Leukemia), read-out: GI%
In short: as §1

SN12C = details: Homo sapiens; for inhibition at 10 µM: SN12C (Renal cancer), read-out: GI%
In short: as §1

SK-OV-3 = details: Homo sapiens
In short: as §1

RPMI-8226 = details: Homo sapiens; for inhibition at 10 µM: RPMI-8226 (Leukemia), read-out: GI%
In short: as §1

KM12 = details: Homo sapiens; for inhibition at 10 µM: KM12 (Colon cancer), read-out: GI%
In short: as §1

SF-268 = details: Homo sapiens; for inhibition at 10 µM: SF-268 (CNS cancer), read-out: GI%
In short: as §1

SF-295 = details: Homo sapiens; for inhibition at 10 µM: SF-295 (CNS cancer), read-out: GI%
In short: as §1

IGROV1 = details: Homo sapiens, IGROV-1; for inhibition at 10 µM: IGROV1 (Ovarian cancer), read-out: GI%
In short: as §1

SK-MEL-5 = details: Homo sapiens; for inhibition at 10 µM: SK-MEL-5 (Melanoma), read-out: GI%
In short: as §1

RXF 393 = details: Homo sapiens; for inhibition at 10 µM: RXF 393 (Renal cancer), read-out: GI%
In short: as §1

UO-31 = details: Homo sapiens; for inhibition at 10 µM: UO-31 (Renal cancer), read-out: GI%
In short: as §1

OVCAR-4 = details: Homo sapiens; for inhibition at 10 µM: OVCAR-4 (Ovarian cancer), read-out: GI%
In short: as §1

SK-MEL-2 = details: Homo sapiens; for inhibition at 10 µM: SK-MEL-2 (Melanoma), read-out: GI%
In short: as §1

HT29 = details: Homo sapiens, HT-29; for inhibition at 10 µM: HT29 (Colon cancer), read-out: GI%
In short: as §1

MDA-MB-231/ATCC = details: Homo sapiens; for inhibition at 10 µM: MDA-MB-231/ATCC (Breast cancer), read-out: GI%
In short: as §1

OVCAR-3 = details: Homo sapiens; for inhibition at 10 µM: OVCAR-3 (Ovarian cancer), read-out: GI%
In short: as §1

SNB-75 = details: Homo sapiens; SNB-75 (CNS cancer), 10 µM; read-out: GI%
In short: as §1

PC-3 = details: Homo sapiens; for inhibition at 10 µM: PC-3 (Prostate cancer), read-out: GI%
In short: as §1

K-562 = details: Homo sapiens, K562; for inhibition at 10 µM: K-562 (Leukemia), read-out: GI%
In short: as §1

DU-145 = details: Homo sapiens; for inhibition at 10 µM: DU-145 (Prostate cancer), read-out: GI%
In short: as §1

SK-MEL-28 = details: Homo sapiens; for inhibition at 10 µM: SK-MEL-28 (Melanoma), read-out: GI%
In short: as §1

U251 = details: Homo sapiens, U-251; for inhibition at 10 µM: U251 (CNS cancer), read-out: GI%
In short: as §1

M14 = details: Homo sapiens; for inhibition at 10 µM: M14 (Melanoma), read-out: GI%
In short: as §1

NCI-H226 = details: Homo sapiens; for inhibition at 10 µM: NCI-H226 (Non-small cell lung cancer), read-out: GI%
In short: as §1

NCI-H522 = details: Homo sapiens; for inhibition at 10 µM: NCI-H522 (Non-small cell lung cancer), read-out: GI%
In short: as §1

## COc1cccc(C=NNC(=O)c2ccc3[nH]c(-c4ccccc4)nc3c2)c1O [8d, N'-(2-hydroxy-3-methoxybenzylidene)-2-phenyl-1H-benzo[d]imidazole-5-carbohydrazide]
BT-549
  inhibition at 10 µM: 96.6%
BT-549; BT-549, Breast cancer, five-dose
  GI50: 1.52 µM
CCRF-CEM
  inhibition at 10 µM: > 100%
CCRF-CEM; CCRF-CEM, Leukemia, five-dose
  GI50: 0.3 µM
SN12C
  inhibition at 10 µM: 91.5%
SN12C; SN12C, Renal cancer, five-dose
  GI50: 2.08 µM
SK-OV-3; SK-OV-3, Ovarian cancer, five-dose
  GI50: 2.56 µM
RPMI-8226
  inhibition at 10 µM: 98.5%
RPMI-8226; RPMI-8226, Leukemia, five-dose
  GI50: 1.86 µM
KM12
  inhibition at 10 µM: > 100%
KM12; KM12, Colon cancer, five-dose
  GI50: 2.58 µM
SF-268
  inhibition at 10 µM: 99%
SF-268; SF-268, CNS cancer, five-dose
  GI50: 1.76 µM
SF-295
  inhibition at 10 µM: 83.2%
SF-295; SF-295, CNS cancer, five-dose
  GI50: 2.93 µM
IGROV1
  inhibition at 10 µM: 79.9%
IGROV1; IGROV1, Ovarian cancer, five-dose
  GI50: 2.34 µM
SK-MEL-5
  inhibition at 10 µM: > 100%
SK-MEL-5; SK-MEL-5, Melanoma, five-dose
  GI50: 1.4 µM
RXF 393
  inhibition at 10 µM: 86%
RXF 393; RXF 393, Renal cancer, five-dose
  GI50: 3.21 µM
UO-31
  inhibition at 10 µM: 98.5%
UO-31; UO-31, Renal cancer, five-dose
  GI50: 2.34 µM
OVCAR-4
  inhibition at 10 µM: > 100%
OVCAR-4; OVCAR-4, Ovarian cancer, five-dose
  GI50: 1.85 µM
SK-MEL-2
  inhibition at 10 µM: 34.3%
SK-MEL-2; SK-MEL-2, Melanoma, five-dose
  GI50: 1.64 µM
HT29
  inhibition at 10 µM: 84.5%
HT29; HT29, Colon cancer, five-dose
  GI50: 3.41 µM
MDA-MB-231/ATCC
  inhibition at 10 µM: 94.4%
MDA-MB-231/ATCC; MDA-MB-231/ATCC, Breast cancer, five-dose
  GI50: 2.41 µM
OVCAR-3
  inhibition at 10 µM: > 100%
OVCAR-3; OVCAR-3, Ovarian cancer, five-dose
  GI50: 0.42 µM
SNB-75
  inhibition at 10 µM: 99.2%
PC-3
  inhibition at 10 µM: 82.2%
PC-3; PC-3, Prostate cancer, five-dose
  GI50: 2.71 µM
K-562
  inhibition at 10 µM: 60.9%
K-562; K-562, Leukemia, five-dose
  GI50: 2.04 µM
DU-145
  inhibition at 10 µM: 79.7%
DU-145; DU-145, Prostate cancer, five-dose
  GI50: 3.05 µM
SK-MEL-28
  inhibition at 10 µM: 96.2%
SK-MEL-28; SK-MEL-28, Melanoma, five-dose
  GI50: 1.78 µM
U251
  inhibition at 10 µM: 99.9%
U251; U251, CNS cancer, five-dose
  GI50: 0.76 µM
M14
  inhibition at 10 µM: > 100%
M14; M14, Melanoma, five-dose
  GI50: 1.57 µM
NCI-H226
  inhibition at 10 µM: > 100%
NCI-H226; NCI-H226, Non-small cell lung cancer, five-dose
  GI50: 0.53 µM
NCI-H522
  inhibition at 10 µM: > 100%
NCI-H522; NCI-H522, Non-small cell lung cancer, five-dose
  GI50: 1.97 µM

## COc1ccc(OC)c(C=NNC(=O)c2ccc3[nH]c(-c4ccccc4)nc3c2)c1 [8f, N'-(2,5-Dimethoxybenzylidene)-2-phenyl-1H-benzo[d]imidazole-5-carbohydrazide]
BT-549
  inhibition at 10 µM: 38.2%
CCRF-CEM
  inhibition at 10 µM: 80.5%
SN12C
  inhibition at 10 µM: 35.2%
RPMI-8226
  inhibition at 10 µM: 81.3%
KM12
  inhibition at 10 µM: 30.5%
SF-268
  inhibition at 10 µM: 36.6%
SF-295
  inhibition at 10 µM: 31.4%
IGROV1
  inhibition at 10 µM: 11%
SK-MEL-5
  inhibition at 10 µM: 67.8%
RXF 393
  inhibition at 10 µM: 50%
UO-31
  inhibition at 10 µM: 54%
OVCAR-4
  inhibition at 10 µM: 37.8%
SK-MEL-2
  inhibition at 10 µM: 16.7%
HT29
  inhibition at 10 µM: 14.7%
MDA-MB-231/ATCC
  inhibition at 10 µM: 38%
OVCAR-3
  inhibition at 10 µM: 12.5%
SNB-75
  inhibition at 10 µM: < 5%
PC-3
  inhibition at 10 µM: 55.5%
K-562
  inhibition at 10 µM: 63%
DU-145
  inhibition at 10 µM: 18.4%
SK-MEL-28
  inhibition at 10 µM: 29.1%
U251
  inhibition at 10 µM: 20.7%
M14
  inhibition at 10 µM: 34.4%
NCI-H226
  inhibition at 10 µM: 49.5%
NCI-H522
  inhibition at 10 µM: 37.8%

## COc1cc(C=NNC(=O)c2ccc3[nH]c(-c4ccccc4)nc3c2)cc(OC)c1OC [8g, 2-Phenyl-N'-(3,4,5-trimethoxybenzylidene)-1H-benzo[d]imidazole-5-carbohydrazide]
BT-549
  inhibition at 10 µM: 35.4%
CCRF-CEM
  inhibition at 10 µM: 62%
SN12C
  inhibition at 10 µM: 32.2%
RPMI-8226
  inhibition at 10 µM: 86.9%
KM12
  inhibition at 10 µM: 36.4%
SF-268
  inhibition at 10 µM: 32%
SF-295
  inhibition at 10 µM: 54.1%
IGROV1
  inhibition at 10 µM: 17%
SK-MEL-5
  inhibition at 10 µM: 89.3%
RXF 393
  inhibition at 10 µM: 30.8%
UO-31
  inhibition at 10 µM: 45.5%
OVCAR-4
  inhibition at 10 µM: 21.9%
SK-MEL-2
  inhibition at 10 µM: 21.8%
HT29
  inhibition at 10 µM: 47.3%
MDA-MB-231/ATCC
  inhibition at 10 µM: 30.5%
OVCAR-3
  inhibition at 10 µM: 29.4%
SNB-75
  inhibition at 10 µM: < 5%
PC-3
  inhibition at 10 µM: 37.9%
K-562
  inhibition at 10 µM: 30.4%
DU-145
  inhibition at 10 µM: 17.1%
SK-MEL-28
  inhibition at 10 µM: 40.4%
U251
  inhibition at 10 µM: 42.3%
M14
  inhibition at 10 µM: 43.3%
NCI-H226
  inhibition at 10 µM: 50.4%
NCI-H522
  inhibition at 10 µM: 50.7%

## COc1ccc(-c2nc3cc(C(=O)NN=Cc4cc(OC)c(OC)c(OC)c4)ccc3[nH]2)cc1 [8n, 2-(4-Methoxyphenyl)-N'-(3,4,5-trimethoxybenzylidene)-1H-benzo[d]imidazole-5-carbohydrazide]
BT-549
  inhibition at 10 µM: < 5%
CCRF-CEM
  inhibition at 10 µM: 38.8%
SN12C
  inhibition at 10 µM: 9.66%
SK-OV-3; SK-OV-3 (Ovarian cancer), 10 µM, read-out: GI%
  inhibition at 10 µM: 20.2%
RPMI-8226
  inhibition at 10 µM: 44.5%
KM12
  inhibition at 10 µM: 13.8%
SF-268
  inhibition at 10 µM: 21%
SF-295
  inhibition at 10 µM: 29.8%
IGROV1
  inhibition at 10 µM: < 5%
SK-MEL-5
  inhibition at 10 µM: 42.6%
RXF 393
  inhibition at 10 µM: 20.1%
UO-31
  inhibition at 10 µM: 21.8%
OVCAR-4
  inhibition at 10 µM: < 5%
MDA-MB-231/ATCC
  inhibition at 10 µM: 7.37%
OVCAR-3
  inhibition at 10 µM: < 5%
SNB-75
  inhibition at 10 µM: < 5%
PC-3
  inhibition at 10 µM: 12.9%
K-562
  inhibition at 10 µM: 23.7%
DU-145
  inhibition at 10 µM: < 5%
SK-MEL-28
  inhibition at 10 µM: 31.4%
U251
  inhibition at 10 µM: 15.3%
M14
  inhibition at 10 µM: 40.3%
NCI-H226
  inhibition at 10 µM: 22.3%
NCI-H522
  inhibition at 10 µM: 96.2%

## COc1ccc(C=NNC(=O)c2ccc3[nH]c(-c4ccc(Cl)cc4)nc3c2)cc1O [8s, 2-(4-Chlorophenyl)-N'-(3-hydroxy-4-methoxybenzylidene)-1H-benzo[d]imidazole-5-carbohydrazide]
BT-549
  inhibition at 10 µM: 42.9%
CCRF-CEM
  inhibition at 10 µM: > 100%
SN12C
  inhibition at 10 µM: 31.3%
RPMI-8226
  inhibition at 10 µM: > 100%
KM12
  inhibition at 10 µM: 68.4%
SF-268
  inhibition at 10 µM: 72.7%
SF-295
  inhibition at 10 µM: 85%
IGROV1
  inhibition at 10 µM: < 5%
SK-MEL-5
  inhibition at 10 µM: 53.3%
RXF 393
  inhibition at 10 µM: 69.1%
UO-31
  inhibition at 10 µM: 8.7%
OVCAR-4
  inhibition at 10 µM: 20.8%
SK-MEL-2
  inhibition at 10 µM: 76.1%
HT29
  inhibition at 10 µM: > 100%
MDA-MB-231/ATCC
  inhibition at 10 µM: 75.1%
OVCAR-3
  inhibition at 10 µM: 47.5%
SNB-75
  inhibition at 10 µM: 6.41%
PC-3
  inhibition at 10 µM: 56.5%
K-562
  inhibition at 10 µM: 50.3%
DU-145
  inhibition at 10 µM: 16.2%
SK-MEL-28
  inhibition at 10 µM: 70.8%
U251
  inhibition at 10 µM: 75.2%
M14
  inhibition at 10 µM: 42.1%
NCI-H226
  inhibition at 10 µM: 37.6%
NCI-H522
  inhibition at 10 µM: 30.9%
